Data: ChEMBL document CHEMBL4359906, “Design and synthesis of new N-terminal fatty acid modified-antimicrobial peptide analogues with potent in vitro biological activity” (Eur J Med Chem, 2019)
Converted amounts (≈) assume the structure as drawn. The source made the active and inactive calls. The calls are words filed in the database; no cut-off is given here.

How the values were obtained:
Escherichia coli [1] = assay: Antibacterial activity against Escherichia coli ATCC 25922 after 18 hrs by CLSI based broth microdilution method; assay type: functional; conditions: ATCC 25922, 18 h
Escherichia coli [2] = assay: Antibacterial activity against Escherichia coli ATCC 43837 after 18 hrs by CLSI based broth microdilution method; assay type: functional; conditions: ATCC 43837, 18 h
Klebsiella pneumoniae [3] = assay: Antibacterial activity against Klebsiella pneumoniae ATCC 700603 after 18 hrs by CLSI based broth microdilution method; assay type: functional; conditions: Klebsiella pneumoniae, 700603, 18 h
Pseudomonas aeruginosa [4] = assay: Antibacterial activity against Pseudomonas aeruginosa ATCC 27853 after 18 hrs by CLSI based broth microdilution method; assay type: functional; conditions: ATCC 27853, 18 h
Staphylococcus aureus [5] = assay: Antibacterial activity against Staphylococcus aureus ATCC 25923 after 18 hrs by CLSI based broth microdilution method; assay type: functional; conditions: ATCC 25923, 18 h
Bacillus subtilis = assay: Antibacterial activity against Bacillus subtilis ATCC 23857 after 18 hrs by CLSI based broth microdilution method; assay type: functional; conditions: ATCC 23857, 18 h
[6] = Selectivity index, ratio of MHC10 for human RBC to geometric mean of peptide MIC for gram positive bacteria; assay type: toxicity; conditions: human red blood cells, read-out: Selectivity Index
[7] = Selectivity index, ratio of MHC10 for human RBC to geometric mean of peptide MIC for gram negative bacteria; assay type: toxicity; conditions: human red blood cells, read-out: Selectivity Index
Escherichia coli [8] = assay: Potentiation of polymyxin B-induced antibacterial activity against Escherichia coli ATCC 25922 assessed as FICI after 18 hrs by checker board assay; assay type: functional
Klebsiella pneumoniae [9] = assay: Potentiation of polymyxin B-induced antibacterial activity against Klebsiella pneumoniae ATCC 700603 assessed as FICI after 18 hrs by checker board assay; assay type: functional
Pseudomonas aeruginosa [10] = assay: Potentiation of polymyxin B-induced antibacterial activity against Pseudomonas aeruginosa ATCC 27853 assessed as FICI after 18 hrs by checker board assay; assay type: functional
Escherichia coli [11] = assay: Potentiation of rifampicin-induced antibacterial activity against Escherichia coli ATCC 25922 assessed as FICI after 18 hrs by checker board assay; assay type: functional
Pseudomonas aeruginosa [12] = assay: Potentiation of rifampicin-induced antibacterial activity against Pseudomonas aeruginosa ATCC 27853 assessed as FICI after 18 hrs by checker board assay; assay type: functional
Escherichia coli [13] = assay: Antibacterial activity against Escherichia coli ATCC 25922 at 0.5 times MIC incubated for 18 hrs measured for 15 passages by CLSI based broth microdilution method; assay type: functional, organism-based
Escherichia coli [14] = assay: Antibiofilm activity against Escherichia coli ATCC 25922 after 24 hrs by crystal violet staining based assay; assay type: functional, organism-based
Staphylococcus aureus [15] = assay: Antibiofilm activity against Staphylococcus aureus ATCC 25923 after 24 hrs by crystal violet staining based assay; assay type: functional, organism-based
Pseudomonas aeruginosa [16] = assay: Antibiofilm activity against Pseudomonas aeruginosa ATCC 27853 after 24 hrs by crystal violet staining based assay; assay type: functional, organism-based
Escherichia coli [17] = assay: Antibiofilm activity against Escherichia coli ATCC 25922 at 2 times MIC after 24 hrs by crystal violet staining based assay; assay type: functional, organism-based
Pseudomonas aeruginosa [18] = assay: Antibiofilm activity against Pseudomonas aeruginosa ATCC 27853 at 0.25 to 2 times of MIC after 24 hrs by crystal violet staining based assay; assay type: functional, organism-based
Escherichia coli [19] = assay: Antimicrobial activity against Escherichia coli ATCC 25922 at 1 mM preincubated for 6 hrs in presence of 2000 ug/ml trypsin and measured after 18 hrs by microplate reader analysis; assay type: functional, organism-based
Escherichia coli [20] = assay: Ratio of MIC for Escherichia coli ATCC 25922 preincubated for 1 hr in presence of 10% mouse serum and measured after 18 hrs to MIC for antibacterial activity against Escherichia coli ATCC 25922 after 18 hrs; assay type: functional
Escherichia coli [21] = assay: Ratio of MIC for Escherichia coli ATCC 25922 preincubated for 6 hrs in presence of 10% mouse serum and measured after 18 hrs to MIC for antibacterial activity against Escherichia coli ATCC 25922 after 18 hrs; assay type: functional
Escherichia coli [22] = assay: Induction of inner membrane permeabilization in Escherichia coli ATCC 43837 assessed as increase in ONPG release at 4 times of MIC by ONPG dye based assay; assay type: organism-based
Escherichia coli [23] = assay: Induction of inner membrane permeabilization in Escherichia coli ATCC 43837 assessed as increase in ONPG release at 1 to 2 times of MIC by ONPG dye based assay; assay type: organism-based
Escherichia coli [24] = assay: Disruption of membrane integrity in Escherichia coli ATCC 25922 assessed as membrane damage by measuring PI fluorescence at 4 times of MIC incubated for 1 hr by PI dye based flow cytometric analysis (reference value: 1.35%); assay type: functional
Escherichia coli [25] = assay: Disruption of membrane integrity in Escherichia coli ATCC 25922 assessed as membrane damage by measuring PI fluorescence at 2 times of MIC incubated for 1 hr by PI dye based flow cytometric analysis (reference value: 1.35%); assay type: functional
Escherichia coli [26] = assay: Disruption of membrane integrity in Escherichia coli ATCC 25922 assessed as membrane damage by measuring PI fluorescence incubated for 1 hr by PI dye based flow cytometric analysis; assay type: functional, organism-based
Escherichia coli [27] = assay: Induction of membrane disruption in Escherichia coli ATCC 25922 assessed as rough membrane surface at 4 times of MIC after 2 hrs by SEM analysis; assay type: functional, organism-based
Escherichia coli [28] = assay: Induction of membrane disruption in Escherichia coli ATCC 25922 assessed as corrugated membrane surface at 4 times of MIC after 2 hrs by SEM analysis; assay type: functional, organism-based
Escherichia coli [29] = assay: Induction of membrane disruption in Escherichia coli ATCC 25922 assessed as degeneration in membrane at 4 times of MIC after 2 hrs by SEM analysis; assay type: functional, organism-based
DNA = assay: Binding affinity to Escherichia coli ATCC 25922 genomic DNA after 30 mins by agarose gel electrophoresis; assay type: nucleic-acid assay
Escherichia coli [30] = assay: Ratio of antibacterial activity against Escherichia coli ATCC 25922 in presence of NaCl to antibacterial activity against Escherichia coli ATCC 25922; assay type: functional
Escherichia coli [31] = assay: Ratio of antibacterial activity against Escherichia coli ATCC 25922 in presence of KCl to antibacterial activity against Escherichia coli ATCC 25922; assay type: functional
Escherichia coli [32] = assay: Ratio of antibacterial activity against Escherichia coli ATCC 25922 in presence of MgCl2 to antibacterial activity against Escherichia coli ATCC 25922; assay type: functional
Escherichia coli [33] = assay: Ratio of antibacterial activity against Escherichia coli ATCC 25922 in presence of FeCl3 to antibacterial activity against Escherichia coli ATCC 25922; assay type: functional
Staphylococcus aureus [34] = assay: Ratio of antibacterial activity against Staphylococcus aureus ATCC 25923 in presence of KCl to antibacterial activity against Staphylococcus aureus ATCC 25923; assay type: functional
Staphylococcus aureus [35] = assay: Ratio of antibacterial activity against Staphylococcus aureus ATCC 25923 in presence of MgCl2 to antibacterial activity against Staphylococcus aureus ATCC 25923; assay type: functional
Staphylococcus aureus [36] = assay: Ratio of antibacterial activity against Staphylococcus aureus ATCC 25923 in presence of FeCl3 to antibacterial activity against Staphylococcus aureus ATCC 25923; assay type: functional
Escherichia coli [37] = assay: Induction of membrane disruption in Escherichia coli ATCC 25922 assessed as fracture in membrane at 4 times of MIC after 2 hrs by SEM analysis; assay type: functional, organism-based
Escherichia coli [38] = assay: Induction of ROS generation in Escherichia coli ATCC 25922; assay type: functional, organism-based

| Structure (SMILES) | MIC (Escherichia coli [1]) [µM] | MIC (Escherichia coli [2]) [µM] | MIC (Klebsiella pneumoniae [3]) [µM] | MIC (Pseudomonas aeruginosa [4]) [µM] | MIC (Staphylococcus aureus [5]) [µM] | MIC (Bacillus subtilis) [µM] | selectivity ratio [6] | selectivity ratio [7] | fractional inhibitory concentration index (FICI) (Escherichia coli [8]) | fractional inhibitory concentration index (FICI) (Klebsiella pneumoniae [9]) | fractional inhibitory concentration index (FICI) (Pseudomonas aeruginosa [10]) | fractional inhibitory concentration index (FICI) (Escherichia coli [11]) | fractional inhibitory concentration index (FICI) (Pseudomonas aeruginosa [12]) | Activity (Escherichia coli [13]) | inhibition (Escherichia coli [14]) | inhibition (Staphylococcus aureus [15]) | inhibition (Pseudomonas aeruginosa [16]) | inhibition (Escherichia coli [17]) | inhibition (Pseudomonas aeruginosa [18]) | Activity (Escherichia coli [19]) | also measured |
| --- | --- | --- | --- | --- | --- | --- | --- | --- | --- | --- | --- | --- | --- | --- | --- | --- | --- | --- | --- | --- | --- |
| CCCCCC(=O)NC(Cc1cn(CCCC[C@H](NC(C)=O)C(=O)NCC(=O)N[C@@H](CC(C)C)C(=O)N[C@@H](CC(C)C)C(=O)N[C@H](CCCCN)C(=O)N[C@@H](CCCNC(=N)N)C(=O)N[C@H](C(=O)N[C@H](CCCCN)C(=O)N[C@H](C(=O)N[C@@H](CC(C)C)C(=O)N[C@@H](CC(C)C)C(N)=O)[C@@H](C)O)[C@@H](C)CC)nn1)C(=O)NCC(=O)N[C@@H](CC(C)C)C(=O)N[C@@H](CC(C)C)C(=O)N[C@H](CCCCN)C(=O)N[C@@H](CCCNC(=N)N)C(=O)N[C@H](C(=O)N[C@H](CCCCN)C(=O)N[C@H](C(=O)N[C@@H](CC(C)C)C(=O)N[C@@H](CC(C)C)C(N)=O)[C@@H](C)O)[C@@H](C)CC (stereo not given in full) | 8 (≈ 21.6 µg/mL) | 8 (≈ 21.6 µg/mL) | 16 (≈ 43.1 µg/mL) | 8 (≈ 21.6 µg/mL) | 64 (≈ 173 µg/mL) | 4 (≈ 10.8 µg/mL) | 11.6 | 51.2 | 0.375 | 0.1875 | 0.3125 | 0.5625 | 0.5 | Active | Dose-dependent effect | Dose-dependent effect | Dose-dependent effect | Active | Active | Active | Ratio (Escherichia coli [20]): 1; Ratio (Escherichia coli [21]): 2; Activity (Escherichia coli [22]): Active; Activity (Escherichia coli [23]): Active; Activity (Escherichia coli [24]): 38.5%; Activity (Escherichia coli [25]): 22.4%; Activity (Escherichia coli [26]): Dose-dependent effect; Activity (Escherichia coli [27]): Active; Activity (Escherichia coli [28]): Active; Activity (Escherichia coli [29]): Active; Activity (DNA): Dose-dependent effect; Ratio (Escherichia coli [30]): 2 - 4; Ratio (Escherichia coli [31]): 2 - 4; Ratio (Escherichia coli [32]): 2 - 4; Ratio (Escherichia coli [33]): 2 - 4; Ratio (Staphylococcus aureus [34]): 2 - 4; Ratio (Staphylococcus aureus [35]): 2 - 4; Ratio (Staphylococcus aureus [36]): 2 - 4; Activity (Escherichia coli [37]): Active; Activity (Escherichia coli [38]): inactive |
| CCCCCCCCCC(=O)NC(Cc1cn(CCCC[C@H](NC(C)=O)C(=O)NCC(=O)N[C@@H](CC(C)C)C(=O)N[C@@H](CC(C)C)C(=O)N[C@H](CCCCN)C(=O)N[C@@H](CCCNC(=N)N)C(=O)N[C@H](C(=O)N[C@H](CCCCN)C(=O)N[C@H](C(=O)N[C@@H](CC(C)C)C(=O)N[C@@H](CC(C)C)C(N)=O)[C@@H](C)O)[C@@H](C)CC)nn1)C(=O)NCC(=O)N[C@@H](CC(C)C)C(=O)N[C@@H](CC(C)C)C(=O)N[C@H](CCCCN)C(=O)N[C@@H](CCCNC(=N)N)C(=O)N[C@H](C(=O)N[C@H](CCCCN)C(=O)N[C@H](C(=O)N[C@@H](CC(C)C)C(=O)N[C@@H](CC(C)C)C(N)=O)[C@@H](C)O)[C@@H](C)CC (stereo not given in full) | 8 (≈ 22 µg/mL) | 8 (≈ 22 µg/mL) | 16 (≈ 44 µg/mL) | 8 (≈ 22 µg/mL) | 8 (≈ 22 µg/mL) | 2 (≈ 5.51 µg/mL) | 3.69 | 3.2 | 0.3125 | 0.5625 | 0.25 | 0.3125 | 0.5625 | Active | Dose-dependent effect | Dose-dependent effect | Dose-dependent effect | Active | Active | Active | Ratio (Escherichia coli [20]): 1; Ratio (Escherichia coli [21]): 2; Activity (Escherichia coli [22]): Active; Activity (Escherichia coli [23]): Active; Activity (Escherichia coli [24]): 82.3%; Activity (Escherichia coli [25]): 56.3%; Activity (Escherichia coli [26]): Dose-dependent effect; Activity (Escherichia coli [27]): Active; Activity (Escherichia coli [28]): Active; Activity (Escherichia coli [29]): Active; Activity (DNA): Dose-dependent effect; Ratio (Escherichia coli [30]): 2 - 4; Ratio (Escherichia coli [31]): 2 - 4; Ratio (Escherichia coli [32]): 2 - 4; Ratio (Escherichia coli [33]): 2 - 4; Ratio (Staphylococcus aureus [34]): 2 - 4; Ratio (Staphylococcus aureus [35]): 2 - 4; Ratio (Staphylococcus aureus [36]): 2 - 4; Activity (Escherichia coli [37]): Active; Activity (Escherichia coli [38]): inactive |
